Ends that are not written are not given here.
How the values were obtained:
Dissolution time = type: physicochemical
Method: The peptide was initially wetted with a small amount of solvent and left for 5 minutes and following added the full amount of solvent. The solution was swirled by hand and observation of final dissolution time noted.
1.6 or 3.2 mg AnxA1 was added to Milli Q® water at around neutral pH containing different salts (NaCl, CaCl2, ZnCl2 or HCl) according to table 2. Dissolution times was observed and the resulting solutions was analyzed using the ThT assay.

[1] = Visual appearance of solution; type: physicochemical
Method: The remainder of the peptide suspension was diluted to an assumed concentration of 5 mg/mL and 4*1 mL samples were adjusted to pH 2, 4, 6 and 8, (see FIG. 2). All 4 vials continued to be opaque indicating limited solubility.
Approximately 16 mg/mL AnxA1 was added to milliQ® water. The resulting pH was 7.5. pH was adjusted to pH 10 in one sample using 0.1 M NaOH and to pH 2 using 0.1 M HCl in another sample, according to table 3. The appearance of the solution was noted. At pH≥7.4 the solution was clear. At pH≤7.1>2.6 solutions where unclear. At pH≤2.6 the solution was again clear. Data are summarized the Table 3, see also FIG. 5.
AnxA1 samples are dissolved in Milli Q® water or 5% mannitol in Milli Q® water to approximately 18 mg/mL and pH was adjusted using 1.0 M HCl and NaOH. After dissolution visual appearance was noted and a photograph was taken, see FIG. 6 and Table 4, and a sample was cleared by centrifugation and the concentration determined in the supernatant using UV-VIS spectroscopy.
Isotonic samples containing 1.5-1.6 mg/mL AnxA1 and a tonicity provider (isotonicity modifier) was prepared around neutral pH according to the specification in table 5. […] The samples were subjected to the ThT assay previously described, where a higher lag-time was observed when using sucrose and mannitol as tonicity providers compared to using trehalose and glucose. The data presented in Table 5 is illustrated graphically in FIG. 7.

AMVSEFLKQAWFIENEEQEYVQTLKSSKGGPGSAVSPYPTFNPSSDV-NH2 [AnxA1]
dissolution (Dissolution time; 20 mg freeze-dried AnxA1 per mL 0.9% NaCl (154 mM) in Milli Q at neutral pH): not readily dissolved | Dissolution time (Notes) (Dissolution time; AnxA1 1.5 mg/mL, NaCl 0.9%, ZnCl2 0.77 mM, pH N/A, after more than 2 hours): not fully solubilized | Dissolution time (Notes) (Dissolution time; AnxA1 1.6 mg/mL in Milli Q water, no salt, pH 7.5): 5 min | Dissolution time (Notes) (Dissolution time; AnxA1 1.6 mg/mL in Milli Q water, no salt, pH 7.6): 5 min | Dissolution time (Notes) (Dissolution time; AnxA1 1.6 mg/mL, CaCl2 0.77 mM, pH 7.2): 5 min | Dissolution time (Notes) (Dissolution time; AnxA1 1.6 mg/mL, CaCl2 0.77 mM, pH 7.4): 10 min | Dissolution time (Notes) (Dissolution time; AnxA1 1.6 mg/mL, NaCl 0.9%, CaCl2 0.77 mM, pH 7.1): 35 min | Dissolution time (Notes) (Dissolution time; AnxA1 3.2 mg/mL, NaCl 0.9%, pH 7.2): 45 min | dissolution time (Dissolution time; Milli Q water around neutral pH, no addition of salt): less than 5 minutes | Visual appearance ([1]; AnxA1 1.5 mg/mL, glucose 5 wt.%, pH 7.1): Clear | Visual appearance ([1]; AnxA1 1.6 mg/mL, mannitol 5 wt.%, pH 6.7): Clear | Visual appearance ([1]; AnxA1 1.6 mg/mL, sucrose 10 wt.%, pH 7.2): Clear | Visual appearance ([1]; AnxA1 1.6 mg/mL, trehalose 10 wt.%, pH 7.2): Clear | Visual appearance ([1]; all isotonic samples, 1.5-1.6 mg/mL AnxA1 and a tonicity provider, around neutral pH): clear solutions | Description (visual appearance) ([1]; approximately 16 mg/mL AnxA1 in milliQ water, pH 2.6-2.0): Clear solution | Description (visual appearance) ([1]; approximately 16 mg/mL AnxA1 in milliQ water, pH 3.8-3.1): Starts clearing up | Description (visual appearance) ([1]; approximately 16 mg/mL AnxA1 in milliQ water, pH 6.1-4.2): Gel-like | Description (visual appearance) ([1]; approximately 16 mg/mL AnxA1 in milliQ water, pH 6.8-6.3): Milky, turbid | Description (visual appearance) ([1]; approximately 16 mg/mL AnxA1 in milliQ water, pH 7.1): Fluffy particles | Description (visual appearance) ([1]; approximately 16 mg/mL AnxA1 in milliQ water, pH ≥7.4): clear solution | appearance of the solution ([1]; approximately 16 mg/mL AnxA1 in milliQ water, pH≤7.1>2.6): unclear | Visual appearance ([1]; approximately 18 mg/mL AnxA1, pH 2, 4 and 6, with and without 5% mannitol in Milli Q water): unclear and or viscous solution | Visual appearance ([1]; approximately 18 mg/mL AnxA1, pH 8 and 10, with and without 5% mannitol in Milli Q water): clear solution | appearance ([1]; assumed 5 mg/mL AnxA1 in Milli Q water, 0.9% NaCl (154 mM), adjusted to pH 2, 4, 6 and 8): opaque
